Measurements published in patent publication US9169290B2, “Peptides and their use” (priority 2007, dated 2015).
≈ marks a conversion by molar mass, not a printed value. Like-named read-outs stand apart in the source and are kept apart here. Blank lines part the entries; values can stand above or below the compound they belong to. Ends that are not written are not given here. Peptide text beside a SMILES is read from it.

Key:
C. albicans = format: cell-based, Candida albicans
Description: (§1) Broth Dilution Antifungal Susceptibility Testing
(§2) The sensitivity of relevant fungal strains to the peptides was determined using Clinical Laboratory Standard Institute (CLSI; formerly NCCLS) Approved Standards.

Trichophyton rubrum = format: cell-based
Description: as §1, §2

C. krusei = format: cell-based, Candida krusei
Description: as §1, §2

C. parapsilosis = format: cell-based, Candida parapsilosis
Description: as §1
The sensitivity of relevant fungal strains to the peptides was determined using Clinical Laboratory Standard Institute (CLSI; formerly NCCLS) Approved Standards. Fungal susceptibility was tested using “Reference Method for Broth Dilution Antifungal Susceptibility Testing of Filamentous Fungi; […];

Malasezzia furfur = format: cell-based
Description: as §1, §2

C. tropicalis = experiment: Broth dilution antifungal susceptibility testing of yeasts (CLSI M27-A), MIC; format: cell-based, Candida tropicalis; conditions: C. tropicalis strain ATCC750
Description: as §1
The sensitivity of relevant fungal strains to the peptides was determined using Clinical Laboratory Standard Institute (CLSI; formerly NCCLS) Approved Standards. Fungal susceptibility was tested using “Reference Method for Broth Dilution Antifungal Susceptibility Testing of Filamentous Fungi; Approved Standard M38-P”, and yeast susceptibility was tested using “Reference Method for Broth Dilution Antifungal Susceptibility Testing of Yeasts; Approved Standard—Second Edition M27-A”.

Compound: CC(C)[C@H](NC(=O)[C@H](CCCNC(=N)N)NC(=O)[C@H](CCCNC(=N)N)NC(=O)[C@H](CCCNC(=N)N)NC(=O)[C@@H](N)CCCNC(=N)N)C(=O)N[C@H](C(=O)N[C@@H](CCCNC(=N)N)C(=O)N[C@@H](CCCNC(=N)N)C(=O)N[C@@H](CCCNC(=N)N)C(=O)N[C@@H](CCCNC(=N)N)C(=O)O)C(C)C [NP310]
- MIC, Candida albicans NCTC3179 (C. albicans): >2000 µM
- MIC (Trichophyton rubrum): >2 µM

Compound: N=C(N)NCCC[C@H](NC(=O)[C@H](CCCNC(=N)N)NC(=O)[C@H](CCCNC(=N)N)NC(=O)[C@H](CCCNC(=N)N)NC(=O)[C@H](CCCNC(=N)N)NC(=O)[C@H](CCCNC(=N)N)NC(=O)[C@H](CCCNC(=N)N)NC(=O)[C@H](CCCNC(=N)N)NC(=O)[C@H](CCCNC(=N)N)NC(=O)[C@H](CCCNC(=N)N)NC(=O)[C@@H](N)CCCNC(=N)N)C(=O)O [NP317]
- MIC, Candida krusei NCPF3953 (C. krusei): 32 µM (≈ 55.6 µg/mL)
- MIC (C. parapsilosis): 256 µM (≈ 444 µg/mL)
- MIC, Candida albicans NCTC3179 (C. albicans): 512 µM (≈ 889 µg/mL)
- MIC (Trichophyton rubrum): 0.25 µM (≈ 0.434 µg/mL)
- MIC (Malasezzia furfur): <15.6 µM

Compound: CC(=O)N[C@H](CCCNC(=N)N)C(=O)N[C@H](CCCNC(=N)N)C(=O)N[C@H](CCCNC(=N)N)C(=O)N[C@H](CCCNC(=N)N)C(=O)N[C@H](CCCNC(=N)N)C(=O)N[C@H](CCCNC(=N)N)C(=O)N[C@H](CCCNC(=N)N)C(=O)N[C@H](CCCNC(=N)N)C(=O)N[C@H](CCCNC(=N)N)C(=O)N[C@H](CCCNC(=N)N)C(=O)N[C@H](CCCNC(=N)N)C(=O)N[C@H](CCCNC(=N)N)C(=O)N[C@H](CCCNC(=N)N)C(N)=O [NP340, Ac-dRdRdRdRdRdRdRdRdRdRdRdRdR-NH2]
- MIC (C. krusei; C. krusei strain ATCC6258): 4 µM (≈ 8.36 µg/mL)
- MIC (C. parapsilosis; C. parapsilosis strain ATCC22019): 2 µM (≈ 4.18 µg/mL)
- MIC (C. parapsilosis; C. parapsilosis strain ATCC90018): 2 µM (≈ 4.18 µg/mL)
- MIC, Candida albicans ATCC90028 (C. albicans): 2 µM (≈ 4.18 µg/mL)
- MIC (C. tropicalis): 2 µM (≈ 4.18 µg/mL)

Compound: N=C(N)NCCC[C@H](NC(=O)[C@H](CCCNC(=N)N)NC(=O)[C@H](CCCNC(=N)N)NC(=O)[C@H](CCCNC(=N)N)NC(=O)[C@H](CCCNC(=N)N)NC(=O)[C@H](CCCNC(=N)N)NC(=O)[C@H](CCCNC(=N)N)NC(=O)[C@H](CCCNC(=N)N)NC(=O)[C@H](CCCNC(=N)N)NC(=O)[C@H](CCCNC(=N)N)NC(=O)[C@H](CCCNC(=N)N)NC(=O)[C@H](CCCNC(=N)N)NC(=O)[C@@H](N)CCCNC(=N)N)C(=O)O [NP351]
- MIC (C. krusei; C. krusei strain NCPF3953): 32 µM (≈ 65.6 µg/mL)
- MIC (C. albicans): 4 µM (≈ 8.19 µg/mL)

Compound: ILRWPWWPWRRK-NH2 [NP354]
- MIC (C. krusei; C. krusei strain NCPF3953): >2048 µM

Compound: KKKKKKKKK [NP345]
- MIC (C. albicans): >2048 µM

Compound: KKKKKKKKKKKKK [NP347]
- MIC (C. albicans; C. albicans strain NCTC3179): >2048 µM

Compound: KKKKKKKKKKKKKKK [NP348]
- MIC (C. albicans; C. albicans strain NCTC3179): >2048 µM

Compound: Poly-L-Lysine (MW 0.5-2 kDa) [NP112]
- MIC (Malasezzia furfur; Malasezzia furfur strain DSM6170): 512 (μg/ml)

Compound: RRRVRRR [NP306, RRRVRRR]
- MIC, Candida albicans NCTC3179 (C. albicans): >2000 µM
- MIC (Trichophyton rubrum): >2 µM

Compound: RRRVVRRR [NP308]
- MIC, Candida albicans NCTC3179 (C. albicans): >2000 µM
- MIC (Trichophyton rubrum): >2 µM

Compound: RRVRR [NP303, RRVRR]
- MIC, Candida albicans NCTC3179 (C. albicans): >2000 µM
- MIC (Trichophyton rubrum): >2 µM

Compound: RRVRRVRR [NP309]
- MIC, Candida albicans NCTC3179 (C. albicans): >2000 µM
- MIC (Trichophyton rubrum): >2 µM

Compound: RRVRVR [NP304, RRVRVR]
- MIC, Candida albicans NCTC3179 (C. albicans): >2000 µM
- MIC (Trichophyton rubrum): >2 µM

Compound: RRVRVRR [NP307, RRVRVRR]
- MIC, Candida albicans NCTC3179 (C. albicans): >2000 µM
- MIC (Trichophyton rubrum): >2 µM

Compound: RRVVR [NP302, RRVVR]
- MIC, Candida albicans NCTC3179 (C. albicans): >2000 µM
- MIC (Trichophyton rubrum): >2 µM

Compound: RRVVRR [NP305, RRVVRR]
- MIC, Candida albicans NCTC3179 (C. albicans): >2000 µM
- MIC (Trichophyton rubrum): >2 µM

Compound: RRWRRWRR-OH [NP311]
- MIC, Candida albicans NCTC3179 (C. albicans): >2000 µM

Compound: RVRVR [NP301, RVRVR]
- MIC, Candida albicans NCTC3179 (C. albicans): >2000 µM
- MIC (Trichophyton rubrum): >2 µM

Compound: RWRWR [NP320, RWRWR]
- MIC, Candida albicans NCTC3179 (C. albicans): >2000 µM

The next lines start with the values.

- MIC (C. krusei): 8 µM (≈ 13.9 µg/mL)
- MIC (C. albicans): 64 µM (≈ 111 µg/mL)
Compound: N=C(N)NCCC[C@H](NC(=O)[C@H](CCCNC(=N)N)NC(=O)[C@H](CCCNC(=N)N)NC(=O)[C@H](CCCNC(=N)N)NC(=O)[C@H](CCCNC(=N)N)NC(=O)[C@H](CCCNC(=N)N)NC(=O)[C@H](CCCNC(=N)N)NC(=O)[C@H](CCCNC(=N)N)NC(=O)[C@H](CCCNC(=N)N)NC(=O)[C@H](CCCNC(=N)N)NC(=O)[C@@H](N)CCCNC(=N)N)C(=O)O [NP350]

- MIC (C. albicans): >2048 µM
Compound: N=C(N)NCCC[C@H](NC(=O)[C@H](CCCNC(=N)N)NC(=O)[C@@H](N)CCCNC(=N)N)C(=O)O [NP356, RRR] (H-Arg-Arg-Arg-OH; N-terminus and C-terminus assumed)

- MIC (C. albicans): >2048 µM
Compound: N=C(N)NCCC[C@H](NC(=O)[C@H](CCCNC(=N)N)NC(=O)[C@H](CCCNC(=N)N)NC(=O)[C@H](CCCNC(=N)N)NC(=O)[C@H](CCCNC(=N)N)NC(=O)[C@H](CCCNC(=N)N)NC(=O)[C@@H](N)CCCNC(=N)N)C(=O)O [NP358, RRRRRRR]

- MIC, Candida albicans NCTC3179 (C. albicans): >2000 µM
Compound: GKKEKPEKKVKK [NP331]

- MIC, Candida albicans NCTC3179 (C. albicans): >2000 µM
Compound: KKKDKVKK [NP334]

- MIC (C. albicans): >2048 µM
Compound: KKKKK [NP343, KKKKK]

- MIC, Candida albicans NCTC3179 (C. albicans): >2000 µM
Compound: KKKKKEGKKQEKMLD [NP333]

- MIC (C. albicans): >2048 µM
Compound: KKKKKKK [NP344, KKKKKKK]

- MIC (C. albicans): >2048 µM
Compound: KKKKKKKKKKK [NP346]

- MIC, Candida albicans NCTC3179 (C. albicans): >2000 µM
Compound: KLTKPKPQAESKKKKK [NP332]

- MIC, Candida albicans NCTC3179 (C. albicans): >2000 µM
Compound: KVRQGTLKKAR [NP335]

- MIC, Candida albicans NCTC3179 (C. albicans): >2000 µM
Compound: PKTKAKAKAKKGKGKD [NP336]

- MIC (C. albicans): >2048 µM
Compound: RRRRR [NP357, RRRRR]

- MIC (C. krusei): 32 µM
- MIC, Candida krusei NCPF3953 (C. krusei): 32 µM
- MIC (C. albicans): 1024 µM
- MIC, Candida albicans ATCC24433 (C. albicans): 512 µM
- MIC, Candida albicans NCTC3179 (C. albicans): 256 µM
Compound: RRRRWWRRRR [NP329]

- MIC, Candida albicans NCTC3179 (C. albicans): >2000 µM
Compound: RRRWRRR [NP325, RRRWRRR]

- MIC, Candida krusei NCPF3953 (C. krusei): 64 µM
- MIC, Candida albicans ATCC24433 (C. albicans): 1024 µM
- MIC, Candida albicans ATCC90028 (C. albicans): 512 µM
- MIC, Candida albicans NCTC3179 (C. albicans): 512 µM
Compound: RRRWWRRR [NP327]

- MIC, Candida albicans NCTC3179 (C. albicans): >2000 µM
Compound: RRWRR [NP322, RRWRR]

- MIC (C. krusei): 128 µM
- MIC, Candida krusei NCPF3953 (C. krusei): 128 µM
- MIC, Candida albicans ATCC24433 (C. albicans): 1024 µM
- MIC, Candida albicans ATCC90028 (C. albicans): 1024 µM
- MIC, Candida albicans NCTC3179 (C. albicans): 1024 µM
Compound: RRWRRWRR [NP328]

- MIC (C. krusei): 256 µM
- MIC, Candida krusei NCPF3953 (C. krusei): 256 µM
- MIC, Candida albicans ATCC24433 (C. albicans): 1024 µM
- MIC, Candida albicans ATCC90028 (C. albicans): 2000 µM
- MIC, Candida albicans NCTC3179 (C. albicans): 1024 µM
Compound: RRWRWR [NP323, RRWRWR]

- MIC (C. krusei): 128 µM
- MIC, Candida krusei NCPF3953 (C. krusei): 128 µM
- MIC (C. albicans): 1024 µM
- MIC, Candida albicans ATCC24433 (C. albicans): 1024 µM
- MIC, Candida albicans ATCC90028 (C. albicans): 1024 µM
- MIC, Candida albicans NCTC3179 (C. albicans): 2000 µM
Compound: RRWRWRR [NP326, RRWRWRR]

- MIC, Candida albicans NCTC3179 (C. albicans): >2000 µM
Compound: RRWWR [NP321, RRWWR]

- MIC (C. krusei): 256 µM
- MIC, Candida krusei NCPF3953 (C. krusei): 256 µM
- MIC (C. albicans): 1024 µM
- MIC, Candida albicans ATCC24433 (C. albicans): 1024 µM
- MIC, Candida albicans ATCC90028 (C. albicans): 1024 µM
- MIC, Candida albicans NCTC3179 (C. albicans): 1024 µM
Compound: RRWWRR [NP324, RRWWRR]
